PMC10732257 (Oncotarget, 2023)

Key:
op-m (opioid) = op-m (opioid) (Homo sapiens, UniProt P35372); assay: GPCR agonist action testing; type: cell-based
Text: (§1) Supplementary Table 2: Results of GPCR agonist action testing of GFH009 administered at a
(§2) Agonist action against GPCR type shown below
(§3) Target % Agonist Effect @ Max Dose
(§4) M1 (muscarinic Ach) −2.18
(§5) M2 (muscarinic Ach) −0.63

5-HT2B (serotonin) = target: T1, 5-HT2B (serotonin) (Homo sapiens, UniProt P41595); assay: GPCR agonist action testing; type: cell-based
T1 construct: Wuxi AppTech (Shanghai, China)
Text: as §1, §2, §3, §4, §5

5-HT1A (serotonin) = target: T2, 5-HT1A (serotonin) (Homo sapiens, UniProt P08908); assay: GPCR agonist action testing; type: cell-based
T2 construct: Wuxi AppTech (Shanghai, China)
Text: as §1, §2, §3, §4, §5

AD2 (adenosine) = assay: GPCR agonist action testing; type: cell-based
Text: as §1, §2, §3, §4, §5

op-k (opioid) = op-k (opioid) (Homo sapiens, UniProt P41145); assay: GPCR agonist action testing; type: cell-based
Text: as §1, §2, §3, §4, §5

H1 (histamine) = target: T3, H1 (histamine) (Homo sapiens, UniProt P35367); assay: GPCR agonist action testing; type: cell-based
T3 construct: Wuxi AppTech (contract laboratory)
Text: as §1, §2, §3, §4, §5

5-HT2A (serotonin) = target: T4, 5-HT2A (serotonin) (Homo sapiens, UniProt P28223); assay: GPCR agonist action testing; type: cell-based
T4 construct: Wuxi AppTech (Shanghai, China)
Text: as §1, §2, §3, §4, §5

5-HT1B (serotonin) = target: T5, 5-HT1B (serotonin) (Homo sapiens, UniProt P28222); assay: GPCR agonist action testing; type: cell-based
T5 construct: Wuxi AppTech (Shanghai, China)
Text: as §1, §2, §3, §4, §5

CCKa = target: T6, CCKa (Homo sapiens, UniProt P32238); assay: GPCR agonist action testing; type: cell-based
T6 construct: Wuxi AppTech (contract laboratory)
Text: as §1, §2, §3, §4, §5

CB1 (cannabinoid) = target: T7, CB1 (cannabinoid) (Homo sapiens, UniProt P21554); assay: GPCR agonist action testing; type: cell-based
T7 construct: Wuxi AppTech (contract laboratory)
Text: as §1, §2, §3, §4, §5

CB2 (cannabinoid) = target: T8, CB2 (cannabinoid) (Homo sapiens, UniProt P34972); assay: GPCR agonist action testing; type: cell-based
T8 construct: Wuxi AppTech (contract laboratory)
Text: as §1, §2, §3, §4, §5

M2 (muscarinic Ach) = M2 (muscarinic Ach) (Homo sapiens, UniProt P08172); assay: GPCR agonist action testing; type: cell-based
Text: as §1, §2, §3, §4, §5

CDK7/cyclin H/MAT1 = target: T9, CDK7/cyclin H/MAT1 (Homo sapiens, UniProt P50613); assay: CDK family off-target kinase activity (Eurofins); type: biochemical
T9 construct: purchased Eurofins Pharma Discovery Services UK Ltd
Protocol: (§6) GFH009 inhibition activity against the CDK9/cyclin T1 complex as well as off-target CDK family reactivity were assayed by Eurofins Pharma Discovery Services UK Ltd., (Dundee, UK). Determination of off-target inhibition of other kinases was conducted by DiscoverX LeadHunter Discovery Services (Freemont, CA, USA.) GFH009 reactivity to GPCR family members was assayed by Wuxi AppTech (Shanghai, China).
(§7) The pharmacodynamic and mechanistic foundation for the
(§8) CDK9 inhibitor for the treatment of hematologic malignancies
(§9) Supplementary Table 1: Inhibitory action of GFH009 on other CDK family members
(§10) Various CDK/ Remaining enzymatic activity (%) after
(§11) cognate cyclin pairs tested exposure to GFH009 at a concentration of Selectivity vs. CDK9
(§12) (also on this page, place not known: www.oncotarget.com Oncotarget, Materials Supplementary)
(§13) (1 picture or pasted object on this page, not shown here)

CDK17/cyclin Y = target: T10, CDK17/cyclin Y (Homo sapiens, UniProt Q00537); assay: CDK family off-target kinase activity (Eurofins); type: biochemical
T10 construct: purchased Eurofins Pharma Discovery Services UK Ltd
T10 sequence (Q00537 whole entry): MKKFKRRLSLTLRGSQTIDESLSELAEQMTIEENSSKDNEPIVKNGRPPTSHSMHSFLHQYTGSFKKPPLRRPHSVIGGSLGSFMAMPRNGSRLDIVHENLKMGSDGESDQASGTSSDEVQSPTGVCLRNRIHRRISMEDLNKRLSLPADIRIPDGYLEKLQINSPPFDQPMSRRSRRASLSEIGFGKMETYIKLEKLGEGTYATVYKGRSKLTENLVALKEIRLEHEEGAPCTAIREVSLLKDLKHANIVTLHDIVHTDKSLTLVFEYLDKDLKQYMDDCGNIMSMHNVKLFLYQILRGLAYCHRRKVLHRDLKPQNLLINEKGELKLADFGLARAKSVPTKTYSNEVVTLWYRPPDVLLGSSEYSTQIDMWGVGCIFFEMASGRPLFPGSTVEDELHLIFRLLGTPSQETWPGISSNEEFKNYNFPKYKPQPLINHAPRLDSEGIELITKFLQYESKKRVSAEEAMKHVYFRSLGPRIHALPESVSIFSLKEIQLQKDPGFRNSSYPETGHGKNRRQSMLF
T10 sequence (Q8ND76 whole entry partner): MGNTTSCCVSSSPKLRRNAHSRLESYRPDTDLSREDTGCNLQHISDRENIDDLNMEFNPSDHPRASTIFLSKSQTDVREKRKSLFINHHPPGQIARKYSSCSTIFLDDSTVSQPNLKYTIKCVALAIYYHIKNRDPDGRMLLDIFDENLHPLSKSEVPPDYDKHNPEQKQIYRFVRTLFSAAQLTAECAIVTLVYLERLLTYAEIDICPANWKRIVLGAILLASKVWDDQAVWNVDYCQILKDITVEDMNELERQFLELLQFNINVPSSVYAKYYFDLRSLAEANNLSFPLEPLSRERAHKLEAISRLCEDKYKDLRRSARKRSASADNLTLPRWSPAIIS
Protocol: as §6, §7, §8, §9, §10, §11, §12, §13

CDK6/cyclin D3 = target: T11, CDK6/cyclin D3 (Homo sapiens, UniProt Q00534); assay: CDK family off-target kinase activity (Eurofins); type: biochemical
T11 construct: purchased Eurofins Pharma Discovery Services UK Ltd
T11 sequence (Q00534 whole entry): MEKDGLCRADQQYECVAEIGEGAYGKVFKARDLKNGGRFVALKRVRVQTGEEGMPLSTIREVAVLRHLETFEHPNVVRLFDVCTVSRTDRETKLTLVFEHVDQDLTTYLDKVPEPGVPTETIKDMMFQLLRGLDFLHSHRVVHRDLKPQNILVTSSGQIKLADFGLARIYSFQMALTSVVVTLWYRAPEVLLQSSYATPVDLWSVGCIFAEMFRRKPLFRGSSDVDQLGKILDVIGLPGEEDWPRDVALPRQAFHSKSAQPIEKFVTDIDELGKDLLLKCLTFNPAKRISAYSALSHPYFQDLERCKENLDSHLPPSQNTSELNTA
T11 sequence (P30281 whole entry partner): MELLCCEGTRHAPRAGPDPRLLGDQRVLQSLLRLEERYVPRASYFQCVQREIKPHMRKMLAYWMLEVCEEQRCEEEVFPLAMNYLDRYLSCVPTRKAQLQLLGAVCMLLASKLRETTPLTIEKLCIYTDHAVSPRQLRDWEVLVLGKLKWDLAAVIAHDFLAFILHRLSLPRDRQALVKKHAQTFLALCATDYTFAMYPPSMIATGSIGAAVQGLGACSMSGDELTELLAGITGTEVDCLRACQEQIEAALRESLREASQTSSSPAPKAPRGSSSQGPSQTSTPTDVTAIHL
Protocol: as §6, §7, §8, §9, §10, §11, §12, §13

CDK12/cyclin K = target: T12, CDK12/cyclin K (Homo sapiens, UniProt Q9NYV4); assay: CDK family off-target kinase activity (Eurofins); type: biochemical
T12 construct: purchased Eurofins Pharma Discovery Services UK Ltd
T12 sequence (Q9NYV4 whole entry): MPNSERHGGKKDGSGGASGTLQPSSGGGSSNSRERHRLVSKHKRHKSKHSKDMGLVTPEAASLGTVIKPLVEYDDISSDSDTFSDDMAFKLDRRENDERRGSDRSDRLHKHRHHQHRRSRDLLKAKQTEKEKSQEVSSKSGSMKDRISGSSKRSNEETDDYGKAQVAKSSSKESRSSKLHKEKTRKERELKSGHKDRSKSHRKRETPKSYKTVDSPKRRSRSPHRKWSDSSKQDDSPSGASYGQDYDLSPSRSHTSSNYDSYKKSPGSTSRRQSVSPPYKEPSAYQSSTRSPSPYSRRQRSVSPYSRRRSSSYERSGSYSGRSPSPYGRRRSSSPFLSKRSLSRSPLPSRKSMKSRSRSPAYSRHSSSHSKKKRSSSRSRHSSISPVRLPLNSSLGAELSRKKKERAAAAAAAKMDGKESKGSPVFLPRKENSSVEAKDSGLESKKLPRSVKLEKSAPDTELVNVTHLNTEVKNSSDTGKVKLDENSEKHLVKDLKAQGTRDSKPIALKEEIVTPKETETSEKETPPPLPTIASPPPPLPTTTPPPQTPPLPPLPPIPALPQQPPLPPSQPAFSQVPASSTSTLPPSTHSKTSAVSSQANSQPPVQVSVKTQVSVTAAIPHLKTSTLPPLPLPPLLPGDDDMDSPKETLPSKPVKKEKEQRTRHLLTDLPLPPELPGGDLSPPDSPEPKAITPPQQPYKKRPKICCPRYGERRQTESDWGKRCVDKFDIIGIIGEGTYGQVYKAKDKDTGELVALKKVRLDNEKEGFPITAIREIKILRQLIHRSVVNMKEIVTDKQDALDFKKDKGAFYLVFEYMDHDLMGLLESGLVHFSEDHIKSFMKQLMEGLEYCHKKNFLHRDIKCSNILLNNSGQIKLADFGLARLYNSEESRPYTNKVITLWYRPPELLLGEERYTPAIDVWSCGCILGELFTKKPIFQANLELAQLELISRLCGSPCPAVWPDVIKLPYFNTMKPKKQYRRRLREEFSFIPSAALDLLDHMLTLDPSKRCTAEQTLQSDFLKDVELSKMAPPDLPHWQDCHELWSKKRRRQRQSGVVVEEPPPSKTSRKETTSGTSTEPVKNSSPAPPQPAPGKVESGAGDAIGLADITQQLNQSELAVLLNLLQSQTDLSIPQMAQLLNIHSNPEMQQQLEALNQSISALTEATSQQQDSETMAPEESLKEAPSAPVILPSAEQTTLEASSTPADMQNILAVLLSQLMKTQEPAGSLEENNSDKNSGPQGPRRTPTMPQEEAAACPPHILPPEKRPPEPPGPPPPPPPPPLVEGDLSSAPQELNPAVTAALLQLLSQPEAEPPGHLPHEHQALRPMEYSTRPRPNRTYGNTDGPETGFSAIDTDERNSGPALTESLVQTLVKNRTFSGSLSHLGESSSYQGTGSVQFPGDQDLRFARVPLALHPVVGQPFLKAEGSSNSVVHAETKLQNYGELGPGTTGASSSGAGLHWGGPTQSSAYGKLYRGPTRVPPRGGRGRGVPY
T12 sequence (O75909 whole entry partner): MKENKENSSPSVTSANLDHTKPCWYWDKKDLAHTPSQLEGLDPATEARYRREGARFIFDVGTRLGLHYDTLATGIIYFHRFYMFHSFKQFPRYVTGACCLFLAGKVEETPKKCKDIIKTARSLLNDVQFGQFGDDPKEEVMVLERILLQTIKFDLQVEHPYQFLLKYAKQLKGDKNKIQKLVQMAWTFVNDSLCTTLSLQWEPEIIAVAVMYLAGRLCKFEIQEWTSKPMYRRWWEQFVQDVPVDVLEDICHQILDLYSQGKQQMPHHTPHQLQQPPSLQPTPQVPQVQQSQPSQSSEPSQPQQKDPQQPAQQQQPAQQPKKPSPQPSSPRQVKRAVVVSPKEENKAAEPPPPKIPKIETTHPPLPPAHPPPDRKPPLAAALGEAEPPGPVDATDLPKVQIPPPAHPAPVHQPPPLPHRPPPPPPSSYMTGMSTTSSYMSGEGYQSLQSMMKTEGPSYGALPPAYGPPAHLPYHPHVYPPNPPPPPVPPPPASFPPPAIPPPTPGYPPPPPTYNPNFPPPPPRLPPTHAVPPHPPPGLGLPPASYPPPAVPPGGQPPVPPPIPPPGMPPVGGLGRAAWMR
Protocol: as §6, §7, §8, §9, §10, §11, §12, §13

CDK3/cyclin E = target: T13, CDK3/cyclin E (Homo sapiens, UniProt Q00526); assay: CDK family off-target kinase activity (Eurofins); type: biochemical
T13 construct: purchased Eurofins Pharma Discovery Services UK Ltd
Protocol: as §6, §7, §8, §9, §10, §11, §12, §13

CDK5/p35 = target: T14, CDK5/p35 (Homo sapiens, UniProt Q00535); assay: CDK family off-target kinase activity (Eurofins); type: biochemical
T14 construct: purchased Eurofins Pharma Discovery Services UK Ltd
Protocol: as §6, §7, §8, §9, §10, §11, §12, §13

CDK2/cyclin E = target: T15, CDK2/cyclin E (Homo sapiens, UniProt P24941); assay: CDK family off-target kinase activity (Eurofins); type: biochemical
T15 construct: purchased Eurofins Pharma Discovery Services UK Ltd
Protocol: as §6, §7, §8, §9, §10, §11, §12, §13

CDK2/cyclin A = target: T16, CDK2/cyclin A (Homo sapiens, UniProt P24941); assay: CDK family off-target kinase activity (Eurofins); type: biochemical
T16 construct: purchased Eurofins Pharma Discovery Services UK Ltd
Protocol: as §6, §7, §8, §9, §10, §11, §12, §13

CDK1/cyclin B = target: T17, CDK1/cyclin B (Homo sapiens, UniProt P06493); assay: CDK family off-target kinase activity (Eurofins); type: biochemical
T17 construct: purchased Eurofins Pharma Discovery Services UK Ltd
Protocol: as §6, §7, §8, §9, §10, §11, §12, §13

CDK4/cyclin D3 = target: T18, CDK4/cyclin D3 (Homo sapiens, UniProt P11802); assay: CDK family off-target kinase activity (Eurofins); type: biochemical
T18 construct: purchased Eurofins Pharma Discovery Services UK Ltd
T18 sequence (P11802 whole entry): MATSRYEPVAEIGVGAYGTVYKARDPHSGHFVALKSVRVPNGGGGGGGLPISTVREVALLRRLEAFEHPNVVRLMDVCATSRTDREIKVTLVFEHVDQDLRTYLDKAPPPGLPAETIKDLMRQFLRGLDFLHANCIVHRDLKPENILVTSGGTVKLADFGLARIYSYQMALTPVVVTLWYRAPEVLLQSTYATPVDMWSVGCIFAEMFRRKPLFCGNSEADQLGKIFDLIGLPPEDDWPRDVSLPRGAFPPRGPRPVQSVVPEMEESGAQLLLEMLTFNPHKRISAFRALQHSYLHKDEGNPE
T18 sequence (P30281 whole entry partner): as the sequence (P30281 whole entry partner) above
Protocol: as §6, §7, §8, §9, §10, §11, §12, §13

CDK18/cyclin Y = target: T19, CDK18/cyclin Y (Homo sapiens, UniProt Q07002); assay: CDK family off-target kinase activity (Eurofins); type: biochemical
T19 construct: purchased Eurofins Pharma Discovery Services UK Ltd
Protocol: as §6, §7, §8, §9, §10, §11, §12, §13

Cdc7/cyclinB1 = target: T20, Cdc7/cyclinB1 (Homo sapiens, UniProt O00311); assay: CDK family off-target kinase activity (Eurofins); type: biochemical
T20 construct: purchased Eurofins Pharma Discovery Services UK Ltd
Protocol: as §6, §7, §8, §9, §10, §11, §12, §13

CDK14/cyclin Y = target: T21, CDK14/cyclin Y (Homo sapiens, UniProt O94921); assay: CDK family off-target kinase activity (Eurofins); type: biochemical
T21 construct: purchased Eurofins Pharma Discovery Services UK Ltd
T21 sequence (O94921 whole entry): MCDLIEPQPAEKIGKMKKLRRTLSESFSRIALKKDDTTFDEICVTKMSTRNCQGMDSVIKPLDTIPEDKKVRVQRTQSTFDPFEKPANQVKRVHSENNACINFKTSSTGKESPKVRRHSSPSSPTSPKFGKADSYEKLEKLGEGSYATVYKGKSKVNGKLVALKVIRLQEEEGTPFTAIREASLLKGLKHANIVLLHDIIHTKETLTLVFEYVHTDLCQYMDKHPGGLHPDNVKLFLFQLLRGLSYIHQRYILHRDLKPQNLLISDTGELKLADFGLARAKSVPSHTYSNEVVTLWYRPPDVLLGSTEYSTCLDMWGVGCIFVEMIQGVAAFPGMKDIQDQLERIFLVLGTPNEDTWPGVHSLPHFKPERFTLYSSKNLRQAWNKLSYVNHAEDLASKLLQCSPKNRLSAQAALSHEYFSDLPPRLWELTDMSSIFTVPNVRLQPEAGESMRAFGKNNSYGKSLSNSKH
T21 sequence (Q8ND76 whole entry partner): as the sequence (Q8ND76 whole entry partner) above
Protocol: as §6, §7, §8, §9, §10, §11, §12, §13

CDK16/cyclin Y = target: T22, CDK16/cyclin Y (Homo sapiens, UniProt Q00536); assay: CDK family off-target kinase activity (Eurofins); type: biochemical
T22 construct: purchased Eurofins Pharma Discovery Services UK Ltd
T22 sequence (Q00536 whole entry): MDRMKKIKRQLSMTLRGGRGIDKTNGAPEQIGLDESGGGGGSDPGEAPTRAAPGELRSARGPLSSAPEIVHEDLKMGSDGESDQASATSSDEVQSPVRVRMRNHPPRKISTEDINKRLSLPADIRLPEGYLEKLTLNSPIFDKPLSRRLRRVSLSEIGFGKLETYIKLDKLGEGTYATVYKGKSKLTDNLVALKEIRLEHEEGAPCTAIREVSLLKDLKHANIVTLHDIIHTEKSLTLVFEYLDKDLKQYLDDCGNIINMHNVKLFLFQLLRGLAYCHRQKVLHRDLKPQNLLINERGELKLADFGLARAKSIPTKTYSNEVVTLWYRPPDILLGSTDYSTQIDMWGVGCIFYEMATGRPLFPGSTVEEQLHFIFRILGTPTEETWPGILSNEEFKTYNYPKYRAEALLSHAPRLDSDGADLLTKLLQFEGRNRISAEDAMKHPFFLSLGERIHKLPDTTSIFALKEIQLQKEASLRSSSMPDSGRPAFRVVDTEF
T22 sequence (Q8ND76 whole entry partner): as the sequence (Q8ND76 whole entry partner) above
Protocol: as §6, §7, §8, §9, §10, §11, §12, §13

CDK5/p25 = target: T23, CDK5/p25 (Homo sapiens, UniProt Q00535); assay: CDK family off-target kinase activity (Eurofins); type: biochemical
T23 construct: purchased Eurofins Pharma Discovery Services UK Ltd
Protocol: as §6, §7, §8, §9, §10, §11, §12, §13

COC[C@@H](C)NC1CCC(Nc2cc(-c3csc(NCC4(C#N)CCOCC4)n3)c(Cl)cn2)CC1 (stereo partly drawn) [GFH009]
% Agonist Effect @ Max Dose (12 µM) (op-m (opioid)): 0.71% | % Agonist Effect @ Max Dose (12 µM) (5-HT2B (serotonin)): 4.55% | % Agonist Effect @ Max Dose (12 µM) (5-HT1A (serotonin)): −0.33% | % Agonist Effect @ Max Dose (12 µM) (AD2 (adenosine)): 21.7% | % Agonist Effect @ Max Dose (12 µM) (op-k (opioid)): 21.57% | % Agonist Effect @ Max Dose (12 µM) (H1 (histamine)): 1.55% | % Agonist Effect @ Max Dose (12 µM) (5-HT2A (serotonin)): −1.68% | % Agonist Effect @ Max Dose (12 µM) (5-HT1B (serotonin)): −51.01% | % Agonist Effect @ Max Dose (12 µM) (CCKa): −0.4% | % Agonist Effect @ Max Dose (12 µM) (CB1 (cannabinoid)): −0.7% | % Agonist Effect @ Max Dose (12 µM) (CB2 (cannabinoid)): 0.23% | % Agonist Effect @ Max Dose (12 µM) (M2 (muscarinic Ach)): −0.63% | Selectivity vs. CDK9 (CDK7/cyclin H/MAT1): > 100 | Remaining enzymatic activity (%) after exposure to GFH009 (CDK7/cyclin H/MAT1; 1 µM): 67% | Remaining enzymatic activity (%) after exposure to GFH009 (CDK7/cyclin H/MAT1; 10 µM): 19% | Selectivity vs. CDK9 (CDK17/cyclin Y): < 100 | Remaining enzymatic activity (%) after exposure to GFH009 (CDK17/cyclin Y; 1 µM): 30% | Remaining enzymatic activity (%) after exposure to GFH009 (CDK17/cyclin Y; 10 µM): 7% | Selectivity vs. CDK9 (CDK6/cyclin D3): > 1000 | Remaining enzymatic activity (%) after exposure to GFH009 (CDK6/cyclin D3; 1 µM): 85% | Remaining enzymatic activity (%) after exposure to GFH009 (CDK6/cyclin D3; 10 µM): 58% | Selectivity vs. CDK9 (CDK12/cyclin K): > 1000 | Remaining enzymatic activity (%) after exposure to GFH009 (CDK12/cyclin K; 1 µM): 94% | Remaining enzymatic activity (%) after exposure to GFH009 (CDK12/cyclin K; 10 µM): 86% | Selectivity vs. CDK9 (CDK3/cyclin E): > 100 | Remaining enzymatic activity (%) after exposure to GFH009 (CDK3/cyclin E; 1 µM): 74% | Remaining enzymatic activity (%) after exposure to GFH009 (CDK3/cyclin E; 10 µM): 39% | Selectivity vs. CDK9 (CDK5/p35): > 100 | Remaining enzymatic activity (%) after exposure to GFH009 (CDK5/p35; 1 µM): 66% | Remaining enzymatic activity (%) after exposure to GFH009 (CDK5/p35; 10 µM): 43% | Selectivity vs. CDK9 (CDK2/cyclin E): > 100 | Remaining enzymatic activity (%) after exposure to GFH009 (CDK2/cyclin E; 1 µM): 63% | Remaining enzymatic activity (%) after exposure to GFH009 (CDK2/cyclin E; 10 µM): 27% | Selectivity vs. CDK9 (CDK2/cyclin A): > 1000 | Remaining enzymatic activity (%) after exposure to GFH009 (CDK2/cyclin A; 1 µM): 80% | Remaining enzymatic activity (%) after exposure to GFH009 (CDK2/cyclin A; 10 µM): 51% | Selectivity vs. CDK9 (CDK1/cyclin B): > 1000 | Remaining enzymatic activity (%) after exposure to GFH009 (CDK1/cyclin B; 1 µM): 97% | Remaining enzymatic activity (%) after exposure to GFH009 (CDK1/cyclin B; 10 µM): 50% | Selectivity vs. CDK9 (CDK4/cyclin D3): > 100 | Remaining enzymatic activity (%) after exposure to GFH009 (CDK4/cyclin D3; 1 µM): 70% | Remaining enzymatic activity (%) after exposure to GFH009 (CDK4/cyclin D3; 10 µM): 41% | Selectivity vs. CDK9 (CDK18/cyclin Y): > 100 | Remaining enzymatic activity (%) after exposure to GFH009 (CDK18/cyclin Y; 1 µM): 53% | Remaining enzymatic activity (%) after exposure to GFH009 (CDK18/cyclin Y; 10 µM): 12% | Selectivity vs. CDK9 (Cdc7/cyclinB1): > 100 | Remaining enzymatic activity (%) after exposure to GFH009 (Cdc7/cyclinB1; 1 µM): 75% | Remaining enzymatic activity (%) after exposure to GFH009 (Cdc7/cyclinB1; 10 µM): 47% | Selectivity vs. CDK9 (CDK14/cyclin Y): > 100 | Remaining enzymatic activity (%) after exposure to GFH009 (CDK14/cyclin Y; 1 µM): 70% | Remaining enzymatic activity (%) after exposure to GFH009 (CDK14/cyclin Y; 10 µM): 39% | Selectivity vs. CDK9 (CDK16/cyclin Y): < 100 | Remaining enzymatic activity (%) after exposure to GFH009 (CDK16/cyclin Y; 1 µM): 23% | Remaining enzymatic activity (%) after exposure to GFH009 (CDK16/cyclin Y; 10 µM): 5% | Selectivity vs. CDK9 (CDK5/p25): > 100 | Remaining enzymatic activity (%) after exposure to GFH009 (CDK5/p25; 1 µM): 79% | Remaining enzymatic activity (%) after exposure to GFH009 (CDK5/p25; 10 µM): 43%
